Active and inactive are the calls of the source.
Legend:
[1] = NIH-3T3 fibroblast cytotoxicity, dose response, cytotoxicity control, cell-based, fluorescence, Alamar Blue, secondary assay (AID 2327); assay type: functional;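 note: NIH-3T3 mouse fibroblasts cultured with fluconazole at 8 µg/mL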
[2] = C. albicans growth with fluconazole, confirmation, fluorescence, retest (AID 2467); assay type: functional, cell-based
[3] = molecular target: Serine/threonine-protein phosphatase (Candida dubliniensis (strain CD36 / CBS 7987 / NCPF 3949 / NRRLY-17841) (Yeast), UniProt B9W6M3); assay: calcineurin pathway inhibitors in yeast reporter, dose response, S. cerevisiae, CDRE-lacZ, luminescence, secondary (AID 2388); assay type: functional, cell-based;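 note: yeast reporter cells carrying a calcineurin-responsive lacZ construct stimulated with calcium chloride; luminescent beta-galactosidase reporter signal in whole cells rather than isolated phosphatase activity; potency for inhibition where a drop in reporter signal means calcineurin blockade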
Serine/threonine-protein phosphatase, sequence (B9W6M3 whole entry): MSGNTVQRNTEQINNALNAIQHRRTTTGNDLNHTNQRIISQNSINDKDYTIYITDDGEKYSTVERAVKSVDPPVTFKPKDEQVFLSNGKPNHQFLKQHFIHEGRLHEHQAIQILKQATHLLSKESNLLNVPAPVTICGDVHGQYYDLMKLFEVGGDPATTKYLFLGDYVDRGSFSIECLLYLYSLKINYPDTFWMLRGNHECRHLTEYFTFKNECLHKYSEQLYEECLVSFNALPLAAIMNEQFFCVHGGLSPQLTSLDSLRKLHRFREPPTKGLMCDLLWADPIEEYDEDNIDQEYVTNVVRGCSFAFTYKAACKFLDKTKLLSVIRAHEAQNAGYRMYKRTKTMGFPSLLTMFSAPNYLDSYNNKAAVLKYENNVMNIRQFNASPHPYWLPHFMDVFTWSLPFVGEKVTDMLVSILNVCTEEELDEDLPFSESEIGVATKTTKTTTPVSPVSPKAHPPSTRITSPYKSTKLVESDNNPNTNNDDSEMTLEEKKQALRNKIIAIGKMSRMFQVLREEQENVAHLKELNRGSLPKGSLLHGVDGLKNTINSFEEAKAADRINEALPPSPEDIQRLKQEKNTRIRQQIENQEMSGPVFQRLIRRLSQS

[4] = molecular target: ATP-dependent molecular chaperone HSP82 (Candida albicans (strain WO-1) (Yeast), UniProt C4YTQ8); assay: loss of DOC-induced GRE-beta-galactosidase reporter signal, dose response, Hsp90 inhibitor project, S. cerevisiae, luminescence (AID 2400); assay type: functional, cell-based;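 note: beta-galactosidase luminescence from glucocorticoid response element reporter as proxy for Hsp90 function; inhibitor potency where signal loss means Hsp90 inhibition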
ATP-dependent molecular chaperone HSP82, sequence (C4YTQ8 whole entry): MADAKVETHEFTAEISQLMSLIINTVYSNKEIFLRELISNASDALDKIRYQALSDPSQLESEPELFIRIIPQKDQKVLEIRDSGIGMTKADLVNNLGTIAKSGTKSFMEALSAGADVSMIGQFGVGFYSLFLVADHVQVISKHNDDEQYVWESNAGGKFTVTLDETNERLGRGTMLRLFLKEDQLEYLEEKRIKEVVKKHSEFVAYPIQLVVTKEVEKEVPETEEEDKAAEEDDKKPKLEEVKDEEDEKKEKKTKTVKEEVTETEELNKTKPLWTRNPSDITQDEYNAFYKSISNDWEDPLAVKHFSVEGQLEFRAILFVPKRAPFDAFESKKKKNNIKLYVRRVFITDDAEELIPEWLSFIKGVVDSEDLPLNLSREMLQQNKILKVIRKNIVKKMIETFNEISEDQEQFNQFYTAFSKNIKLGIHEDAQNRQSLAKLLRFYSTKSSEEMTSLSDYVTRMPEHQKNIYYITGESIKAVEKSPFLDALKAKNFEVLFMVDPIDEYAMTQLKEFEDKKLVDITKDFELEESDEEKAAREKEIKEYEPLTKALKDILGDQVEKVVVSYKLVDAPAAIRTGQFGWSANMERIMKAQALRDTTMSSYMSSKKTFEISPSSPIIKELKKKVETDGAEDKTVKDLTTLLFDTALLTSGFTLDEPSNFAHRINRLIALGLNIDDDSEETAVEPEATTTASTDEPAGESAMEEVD

Escherichia coli [5] = assay: microbe, parasite or virus in culture
Escherichia coli [6] = assay: microbe, parasite or virus in culture; remark: listed apart in the source
[7] = test system: Streptococcus sp. 'group A'; assay: growth inhibition of control SK(-) GAS strain, dose response, counter-screen for streptokinase expression inhibitor project, luminescence, kanamycin, BacTiterGlo, confirmation (AID 1900); assay type: functional, organism-based
Streptococcus = assay: Group A Streptococcus viability loss, dose response, counter-screen for streptokinase expression inhibitor project, luminescence, BacTiterGlo (AID 1915); assay type: functional, organism-based;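 note: potency for reduction of bacterial viability or growth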
[8] = THP-1 cell cytotoxicity, dose response, cytotoxicity control for non-replicating M. tuberculosis project (AID 489025); assay type: functional
[9] = HepG2 cell cytotoxicity, dose response, cytotoxicity control for non-replicating M. tuberculosis project (AID 489018); assay type: functional; conditions: Mycobacterium tuberculosis
[10] = Vero E6 cell cytotoxicity, dose response, cytotoxicity control for non-replicating M. tuberculosis project, secondary assay (AID 492998); assay type: functional, VeroE6; conditions: Vero C1008
[11] = molecular target: T1, Short transient receptor potential channel 4 (Mus musculus, UniProt Q9QUQ5); assay: mouse TRPC4 channel activators, dose response, cell-based, HEK293 TRPC4/mu-opioid, Fluo-4 calcium (AID 434937); assay type: functional
T1 sequence (Q9QUQ5 whole entry): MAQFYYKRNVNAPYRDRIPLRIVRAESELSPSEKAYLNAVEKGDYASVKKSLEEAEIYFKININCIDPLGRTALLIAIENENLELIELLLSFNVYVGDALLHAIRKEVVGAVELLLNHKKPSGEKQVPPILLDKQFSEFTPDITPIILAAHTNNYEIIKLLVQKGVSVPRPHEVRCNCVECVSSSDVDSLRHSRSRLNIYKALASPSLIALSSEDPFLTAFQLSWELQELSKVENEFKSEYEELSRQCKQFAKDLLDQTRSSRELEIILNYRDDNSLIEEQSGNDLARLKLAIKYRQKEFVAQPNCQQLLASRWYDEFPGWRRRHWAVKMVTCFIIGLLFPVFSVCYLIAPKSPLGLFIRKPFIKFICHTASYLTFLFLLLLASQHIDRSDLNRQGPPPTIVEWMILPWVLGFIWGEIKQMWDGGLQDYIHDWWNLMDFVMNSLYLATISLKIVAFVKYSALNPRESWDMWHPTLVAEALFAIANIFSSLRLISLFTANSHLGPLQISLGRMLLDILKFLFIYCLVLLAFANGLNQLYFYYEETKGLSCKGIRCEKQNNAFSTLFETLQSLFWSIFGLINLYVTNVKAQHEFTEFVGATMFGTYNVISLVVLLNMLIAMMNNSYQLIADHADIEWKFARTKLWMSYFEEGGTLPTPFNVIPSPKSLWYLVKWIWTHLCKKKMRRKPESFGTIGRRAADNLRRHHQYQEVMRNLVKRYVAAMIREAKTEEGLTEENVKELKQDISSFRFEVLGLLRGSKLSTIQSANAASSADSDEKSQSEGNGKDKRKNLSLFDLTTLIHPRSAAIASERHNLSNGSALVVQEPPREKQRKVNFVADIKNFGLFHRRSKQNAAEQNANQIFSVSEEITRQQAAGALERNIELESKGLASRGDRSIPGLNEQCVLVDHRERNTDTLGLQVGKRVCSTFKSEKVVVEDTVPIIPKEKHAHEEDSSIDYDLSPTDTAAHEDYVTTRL

cells = assay type: functional
[12] = molecular target: Heat shock protein HSP 90-alpha (Homo sapiens, UniProt P07900); assay type: functional, organism-based
Vero [13] = assay: cells; assay type: functional, cell-based; conditions: Chlorocebus sabaeus
Vero [14] = assay: cells; assay type: functional; conditions: Chlorocebus sabaeus
[15] = human group III sPLA2 inhibitors, dose response, biochemical, QFRET, IC50 (AID 743457);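 note: green fluorescence rise as the enzyme cleaves BODIPY PC-A2 in liposomes; potency for inhibition of the enzyme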
Bcl-2-related protein A1 = molecular target: T2, Bcl-2-related protein A1 (Mus musculus, UniProt Q07440); assay type: functional;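 note: confirmatory dose–response counterscreen on Bfl-1, used to check hits from a UBC13 polyubiquitin inhibitor campaign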
T2 sequence (Q07440 whole entry): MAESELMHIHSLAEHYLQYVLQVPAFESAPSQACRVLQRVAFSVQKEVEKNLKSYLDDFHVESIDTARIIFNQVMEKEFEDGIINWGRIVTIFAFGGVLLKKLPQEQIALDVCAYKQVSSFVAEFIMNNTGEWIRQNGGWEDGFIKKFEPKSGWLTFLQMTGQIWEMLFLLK

[16] = molecular target: T3, Ubiquitin-conjugating enzyme E2 N (Homo sapiens, UniProt P61088); assay type: functional
T3 sequence (P61088 whole entry): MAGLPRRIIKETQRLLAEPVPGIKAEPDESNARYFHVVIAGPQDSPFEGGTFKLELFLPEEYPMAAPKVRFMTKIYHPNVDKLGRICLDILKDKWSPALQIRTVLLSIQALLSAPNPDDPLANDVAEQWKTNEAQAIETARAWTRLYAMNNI

[17] = molecular target: T3, Ubiquitin-conjugating enzyme E2 N; assay type: functional; remark: listed apart in the source
[18] = molecular target: T4, Small ubiquitin-related modifier 1 (Homo sapiens, UniProt P63165); assay: inhibitors of SUMO1 peptide binding, dose response, biochemical, fluorescence polarization, uHTS hits (AID 624382); assay type: functional; conditions: read-out: IC50_Mean
T4 sequence (P63165 whole entry): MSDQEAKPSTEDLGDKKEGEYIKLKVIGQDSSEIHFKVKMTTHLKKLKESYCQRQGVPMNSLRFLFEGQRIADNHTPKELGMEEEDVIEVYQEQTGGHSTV

[19] = molecular target: T4, Small ubiquitin-related modifier 1; assay: inhibitors of SUMO1 partner interactions, dose response, biochemical, FRET (AID 624383); assay type: functional; conditions: read-out: IC50_Mean
[20] = molecular target: T5, Rac GTPase-activating protein 1 (Homo sapiens, UniProt Q9H0H5); assay: MgcRacGAP GTPase-activating activity inhibitors, confirmation, biochemical, ADP Hunter fluorescence, primary and confirmatory (AID 624330); assay type: functional
T5 sequence (Q9H0H5 whole entry): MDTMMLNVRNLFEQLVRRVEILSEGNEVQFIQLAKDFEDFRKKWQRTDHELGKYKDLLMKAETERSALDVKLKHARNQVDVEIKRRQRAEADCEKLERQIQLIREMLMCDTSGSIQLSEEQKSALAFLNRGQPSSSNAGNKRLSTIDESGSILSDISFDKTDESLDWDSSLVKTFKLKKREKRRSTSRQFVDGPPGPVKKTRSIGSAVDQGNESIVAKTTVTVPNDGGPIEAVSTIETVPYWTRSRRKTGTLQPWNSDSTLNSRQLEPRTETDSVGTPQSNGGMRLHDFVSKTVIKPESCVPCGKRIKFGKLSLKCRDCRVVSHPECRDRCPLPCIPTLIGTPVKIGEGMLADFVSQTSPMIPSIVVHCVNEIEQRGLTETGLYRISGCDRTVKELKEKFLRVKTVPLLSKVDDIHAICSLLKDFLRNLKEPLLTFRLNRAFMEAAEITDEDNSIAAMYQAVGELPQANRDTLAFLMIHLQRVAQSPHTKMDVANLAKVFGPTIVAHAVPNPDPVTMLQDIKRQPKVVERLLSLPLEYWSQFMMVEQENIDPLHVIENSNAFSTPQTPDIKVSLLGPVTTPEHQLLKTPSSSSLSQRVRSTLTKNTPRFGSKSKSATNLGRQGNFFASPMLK

[21] = molecular target: T6, Calpain-2 catalytic subunit (Sus scrofa, UniProt P43367); assay: pig calpain II inhibitor potency, dose response, biochemical, fluorogenic peptide substrate (AID 1420); assay type: functional
T6 sequence (P43367 whole entry): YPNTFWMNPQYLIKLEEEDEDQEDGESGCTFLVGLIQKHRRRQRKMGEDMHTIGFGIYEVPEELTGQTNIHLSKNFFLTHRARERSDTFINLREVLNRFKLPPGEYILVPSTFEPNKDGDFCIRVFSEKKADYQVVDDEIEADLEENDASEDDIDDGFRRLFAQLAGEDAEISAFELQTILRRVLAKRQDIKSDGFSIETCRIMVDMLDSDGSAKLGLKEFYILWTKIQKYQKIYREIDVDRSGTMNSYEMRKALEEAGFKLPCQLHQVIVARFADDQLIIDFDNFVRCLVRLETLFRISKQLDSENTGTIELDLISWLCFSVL

Cysteine protease ATG4B = Cysteine protease ATG4B (Homo sapiens, UniProt Q9Y4P1); assay type: functional;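 note: Fluorescence-based dose-response confirmation assay measuring inhibition of ATG4B activity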
Cysteine protease ATG4B, sequence (Q9Y4P1 whole entry): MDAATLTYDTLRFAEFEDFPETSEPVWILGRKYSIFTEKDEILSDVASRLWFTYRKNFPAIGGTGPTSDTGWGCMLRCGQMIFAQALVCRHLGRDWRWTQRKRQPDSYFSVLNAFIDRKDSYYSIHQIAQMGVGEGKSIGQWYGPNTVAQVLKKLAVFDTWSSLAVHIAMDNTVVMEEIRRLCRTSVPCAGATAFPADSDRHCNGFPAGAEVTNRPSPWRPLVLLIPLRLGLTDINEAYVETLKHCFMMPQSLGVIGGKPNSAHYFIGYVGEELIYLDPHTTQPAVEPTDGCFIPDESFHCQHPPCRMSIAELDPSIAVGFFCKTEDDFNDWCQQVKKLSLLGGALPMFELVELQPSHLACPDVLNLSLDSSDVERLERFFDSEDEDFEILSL

Phospholipase A2 = Phospholipase A2 (Homo sapiens, UniProt P04054); assay type: functional;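 note: confirmatory dose-response counterscreen on phospholipase A2, testing hits that came from an ultra-high-throughput screen for ATG4B inhibitors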
Phospholipase A2, sequence (P04054 whole entry): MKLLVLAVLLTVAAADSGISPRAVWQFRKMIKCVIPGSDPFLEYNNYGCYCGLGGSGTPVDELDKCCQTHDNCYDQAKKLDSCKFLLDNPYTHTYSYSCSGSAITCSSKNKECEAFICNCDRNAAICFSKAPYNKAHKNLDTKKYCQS

A-375 [22] = assay: MITF: Counter assay: A375 proliferation Measured in Cell-Based System Using Plate Reader - 2084-03_Inhibitor_Dose_DryPowder_Activity. [Related pubchem assays (depositor defined):AID488944]; assay type: functional; conditions: Homo sapiens
A-375 [23] = assay: A375 melanoma cell viability reduction, dose response, counter-screen for MITF modulator project, cherry-pick samples, set 2 (AID 540335); assay type: functional, cell-based; conditions: Homo sapiens
[24] = molecular target: T7, Microphthalmia-associated transcription factor (Homo sapiens, UniProt O75030); assay: TRPM1 promoter luciferase signal decrease, dose response, MITF inhibitor project, cell-based, SK-MEL-5, cherry-picked, set 3 (AID 493073); assay type: functional
T7 sequence (O75030 whole entry): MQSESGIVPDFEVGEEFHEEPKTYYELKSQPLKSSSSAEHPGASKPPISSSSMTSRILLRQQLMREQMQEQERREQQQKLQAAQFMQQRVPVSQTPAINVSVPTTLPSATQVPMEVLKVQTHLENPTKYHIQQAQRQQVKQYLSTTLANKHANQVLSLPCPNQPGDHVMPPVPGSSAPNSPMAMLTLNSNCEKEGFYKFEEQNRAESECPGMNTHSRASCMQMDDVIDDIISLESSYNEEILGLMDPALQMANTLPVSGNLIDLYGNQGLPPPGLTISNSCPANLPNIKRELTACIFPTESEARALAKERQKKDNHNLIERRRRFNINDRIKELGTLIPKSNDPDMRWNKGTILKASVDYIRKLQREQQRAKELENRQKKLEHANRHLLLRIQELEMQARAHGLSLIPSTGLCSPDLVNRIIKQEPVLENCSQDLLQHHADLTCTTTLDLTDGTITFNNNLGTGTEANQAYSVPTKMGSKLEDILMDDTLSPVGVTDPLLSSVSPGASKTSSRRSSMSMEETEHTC

P388/ADR = assay: cells; assay type: functional; conditions: Mus musculus
SN12K1 = assay: cells; assay type: functional; conditions: Homo sapiens
P388 = assay: cells; assay type: functional; conditions: Mus musculus

COc1ccc(C(=O)NNC(=S)NC(=O)c2ccc(Cl)cc2)cc1
EC50 [1]: > 160 µM (inactive)
EC50 [2]: 275 nM (active)
EC50 [3]: > 180 µM (inactive)
EC50 [4]: 13.9 µM (active)

COc1cc(-c2noc(-c3ccccc3C(=O)NCc3ccco3)n2)cc(OC)c1OC
AC50 (Escherichia coli [5]): 40.5 µM (active)
AC50 (Escherichia coli [6]): 71.1 µM (active)

CC(Oc1ccc(Cl)cc1)C(=O)NNC(=S)NC(=O)c1ccco1 (stereo unspecified)
EC50 [7]: 571 nM (active)
EC50 (Streptococcus): 2.29 µM (active)
CC50 [8]: 13.7 µM (active)
CC50 [9]: > 20 µM (active)
CC50 [10]: 11.2 µM (active)
EC50 [11]: 5.31 µM (active)
IC50 (cells): 9.22 µM (active)
AC50 [12]: 1.41 µM (active)
IC50 (Vero [13]): > 25 µM (active)
CC50 (Vero [14]): > 25 µM (active)
IC50 [15]: 34.9 µM (inactive)

O=C(Nc1ccc(C2=NCCN2)cc1)c1ccc(C(=O)Nc2ccc(C3=NCCN3)cc2)c([N+](=O)[O-])c1
IC50 (Bcl-2-related protein A1): 4.88 µM (active)
IC50 [16]: 3.11 µM (active)
IC50 [17]: 2.17 µM (active)
IC50 [18]: > 66.6 µM (inactive)
IC50 [19]: 3.28 µM (active)
IC50 [20]: 33.1 µM (active)
AC50 (Escherichia coli [6]): 243 µM (active)

COc1cnc(SCc2c(Cl)cccc2Cl)nc1Cl
IC50 [21]: < 400 nM (not active)
IC50 (Cysteine protease ATG4B): 7.76 µM (active)
IC50 (Phospholipase A2): 7.65 µM (active)

COc1ccc(/C=C/c2cc(C(F)(F)F)on2)cc1
AC50 (A-375 [22]): > 35 µM (active)
AC50 (A-375 [23]): > 35 µM (active)

CN(C)CC1CC/C(=C\c2ccc(O)cc2)C1=O (stereo unspecified)
AC50 [24]: 12.9 µM (active)
AC50 [12]: 4.38 µM (active)
AC50 (A-375 [22]): > 35 µM (active)
AC50 (A-375 [23]): > 35 µM (active)
GI50 (P388/ADR): 1.69 µM (inactive)
GI50 (SN12K1): 1.78 µM (inactive)
GI50 (P388): 491 nM (active)

Reference: ChEMBL document CHEMBL1201862, “PubChem BioAssay data set” (2004)
